Results on 13 compounds are retold here after patent US20250313547A1, “CEREBLON LIGANDS AND BIFUNCTIONAL COMPOUNDS COMPRISING THE SAME” (Arvinas Operations, Inc., priority 2017, published 2025).

Bounds are passed on as bounds.

This test relates to androgen receptor (AR). Briefly: AR ELISA assay (androgen receptor degradation). It counts as cell-based. Particulars: LNCaP and/or VCaP cells, 5 hours drug treatment; for AR Dmax: % degraded. As for the experimental part: 5. AR ELISA Assay Protocol
Compounds were evaluated in this assay in LNCaP and/or VCaP cells utilizing similar protocols. The protocols used with VCaP cells are described below. The androgen receptor ELISA assay was performed using PathScan AR Sandwich ELISA (Cell Signaling Catalog #12850) according to the following assay steps:
VCaP cells were seeded at 40,000 cells/well at a volume of 100 µL/well in VCaP assay medium [Phenol red free RPMI (Gibco Cat #11835-030); 5% Charcoal Stripped (Dextran treated) FBS (Omega Scientific, Cat #FB-04); 1% penstrep (Life Technologies, Gibco Cat #: 10378-016)] in Corning 3904 plates. The cells were incubated for a minimum of 3 days. Cells were dosed with PROTACs diluted in 0.01% DMSO and the drug treatment was allowed for 5 hours.
AR ELISA (Cell Signaling) was performed as follows. 1×Cell Signaling Cell lysis buffer was made (Catalogue #9803; comes with the kit). Media from the treated wells is aspirated, and 100 μL 1×cell lysis buffer/well is added. The cells were placed on a shaker for 10 minutes at 4° C. Twenty microliters of lysate was transferred to 100 μl of Diluent in ELISA plate ([…]-0.075 μg/ml). The lysate-diluent mixture was shaken for 30 minutes at 37° C. Allow mouse AR antibody, anti-mouse antibody, TMB, and STOP solution to come to room temperature. The 1×ELISA buffer included in kit was made and loaded in the reservoir. Media from the plates was discarded, the ELISA plate tapped hard on paper towel, and washed 4×200 μl ELISA wash buffer using a plate washer.
One-hundred (100) μL/well of mouse AR detection Ab was added; the plates were covered and shaken at 37° C. for 1 hour; media was discarded from the plates, the plates were tapped on a paper towel, washed 4× with 200 μL ELISA wash buffer with a plate washer.
One-hundred (100) μL/well of anti-mouse—HRP conjugated Ab (comes with the kit) was added; the plates were covered and shaken at 37° C. for 30 minutes; the TMB reagent was allowed to come to room temperature; the media was discard from the plate, the plates were tapped on paper towel, washed 4× with 200 μL of ELISA wash buffer; the plates were tapped the plates on paper towel. One-hundred (100) μL of TMB was added and the plates shaken for 2 minutes—while watching for color development. One-hundred (100) μL Stop solution was added when light blue color developed. Plates were shaken and read at 450 nm.

Consider `Cn1c(-c2cccc(OCCCCCN3CCN(c4ccc(C(=O)N[C@H]5C(C)(C)[C@H](Oc6ccc(C#N)c(Cl)c6)C5(C)C)cc4)CC3)c2)nn(C2CCC(=O)NC2=O)c1=O` (mixture of isomers) [PROTAC-67, rac-N-((1r,3r)-3-(3-chloro-4-cyanophenoxy)-2,2,4,4-tetramethylcyclobutyl)-4-(4-(5-(3-(1-(2,6-dioxopiperidin-3-yl)-4-methyl-5-oxo-4,5-dihydro-1H-1,2,4-triazol-3-yl)phenoxy)pentyl)piperazin-1-yl)benzamide], for which the “AR Dmax” value was “C (C <= 50)” and the DC50 was 1 to 10 nM.
As to `CC1(C)[C@H](NC(=O)c2cnc(N3CCC(CN4CCN(c5ccc(C(=O)NC6CCC(=O)NC6=O)nc5)CC4)CC3)cn2)C(C)(C)[C@H]1Oc1ccc(C#N)c(Cl)c1` (mixture of isomers) [PROTAC-56, rac-N-((1r,3r)-3-(3-chloro-4-cyanophenoxy)-2,2,4,4-tetramethylcyclobutyl)-5-(4-((4-(6-((2,6-dioxopiperidin-3-yl)carbamoyl)pyridin-3-yl)piperazin-1-yl)methyl)piperidin-1-yl)pyrazine-2-carboxamide], the “AR Dmax” value is “B (50 < B <= 75)” and the 50% degradation concentration (DC50) lay in the range of 1 to 10 nM.
As for `CC1(C)[C@H](NC(=O)c2ccc(N3CCC(CCN4CCN(c5cnn(C6CCC(=O)NC6=O)c(=O)c5)CC4)CC3)cc2)C(C)(C)[C@H]1Oc1ccc(C#N)c(Cl)c1` (mixture of isomers) [PROTAC-63, rac-N-((1r,3r)-3-(3-chloro-4-cyanophenoxy)-2,2,4,4-tetramethylcyclobutyl)-4-(4-(2-(4-(1-(2,6-dioxopiperidin-3-yl)-6-oxo-1,6-dihydropyridazin-4-yl)piperazin-1-yl)ethyl)piperidin-1-yl)benzamide], the “AR Dmax” value is reported as “A (A > 75)” and the DC50 is below 1 nM.
The corresponding values for `CC1(C)[C@H](NC(=O)c2ccc(N3CCC(CN4CCN(c5ccc(C(=O)NC6CCC(=O)NC6=O)nc5)CC4)CC3)cc2)C(C)(C)[C@H]1Oc1ccc(C#N)c(Cl)c1` (mixture of isomers) [PROTAC-55, rac-5-(4-((1-(4-(((1r,3r)-3-(3-chloro-4-cyanophenoxy)-2,2,4,4-tetramethylcyclobutyl)carbamoyl)phenyl)piperidin-4-yl)methyl)piperazin-1-yl)-N-(2,6-dioxopiperidin-3-yl)picolinamide] are “B (50 < B <= 75)” and below 1 nM.
The corresponding values for `CC1(C)[C@H](NC(=O)c2ccc(N3CCN(CCCCCOc4ccc5ncc(-n6ccc(=O)[nH]c6=O)cc5c4)CC3)nc2)C(C)(C)[C@H]1Oc1ccc(C#N)c(Cl)c1` [PROTAC-47, N-((1r,3r)-3-(3-chloro-4-cyanophenoxy)-2,2,4,4-tetramethylcyclobutyl)-6-(4-(5-((3-(2,4-dioxo-3,4-dihydropyrimidin-1(2H)-yl)quinolin-6-yl)oxy)pentyl)piperazin-1-yl)nicotinamide] are “C (C <= 50)” and 1 to 10 nM.
The like results for `CC1(C)[C@H](NC(=O)c2ccc(N3CCC(CN4CCN(c5ccc(C(=O)NC6CCC(=O)NC6=O)nc5)CC4)CC3)nc2)C(C)(C)[C@H]1Oc1ccc(C#N)c(Cl)c1` (some centres unmarked) [PROTAC-53, 5-(4-((1-(5-(((1r,3r)-3-(3-chloro-4-cyanophenoxy)-2,2,4,4-tetramethylcyclobutyl)carbamoyl)pyridin-2-yl)piperidin-4-yl)methyl)piperazin-1-yl)-N-(2,6-dioxopiperidin-3-yl)picolinamide] were, in that order, “A (A > 75)” and below 1 nM.
As for `CC1(C)[C@H](NC(=O)c2ccc(N3CCN(CCCCOc4ccc(C(=O)NC5CCC(=O)NC5=O)nc4)CC3)nc2)C(C)(C)[C@H]1Oc1ccc(C#N)c(Cl)c1` (mixture of isomers) [PROTAC-51, rac-5-(4-(4-(5-(((1r,3r)-3-(3-chloro-4-cyanophenoxy)-2,2,4,4-tetramethylcyclobutyl)carbamoyl)pyridin-2-yl)piperazin-1-yl)butoxy)-N-(2,6-dioxopiperidin-3-yl)picolinamide], the “AR Dmax” value is given as “C (C <= 50)” and the 50% degradation concentration (DC50) is below 1 nM.
The corresponding values for `N#Cc1ccc(O[C@H]2CC[C@H](NC(=O)c3ccc(N4CCC(CN5CCN(c6cc(C(=O)O)c(C(=O)NC7CCC(=O)NC7=O)cc6F)CC5)CC4)nn3)CC2)cc1Cl` (some centres unmarked) [PROTAC-57, 5-(4-((1-(6-(((1r,4r)-4-(3-chloro-4-cyanophenoxy)cyclohexyl)carbamoyl)pyridazin-3-yl)piperidin-4-yl)methyl)piperazin-1-yl)-2-((2,6-dioxopiperidin-3-yl)carbamoyl)-4-fluorobenzoic acid] are “A (A > 75)” and 1 to 10 nM.
As to `CC1(C)[C@H](NC(=O)c2ccc(N3CCC(CN4CCN(c5ccc6c(c5)C(=O)N(C5CC(=O)NC5=O)C6=O)CC4)CC3)cc2)C(C)(C)[C@H]1Oc1ccc(C#N)c(Cl)c1` (some centres unmarked) [PROTAC-66, N-((1r,3r)-3-(3-chloro-4-cyanophenoxy)-2,2,4,4-tetramethylcyclobutyl)-4-(4-((4-(2-(2,5-dioxopyrrolidin-3-yl)-1,3-dioxoisoindolin-5-yl)piperazin-1-yl)methyl)piperidin-1-yl)benzamide], the “AR Dmax” value was “C (C <= 50)” and the DC50 was at least 100 nM.
The like results for `CC1(C)[C@H](NC(=O)c2ccc(N3CCN(CCCCCOc4ccc5ncc(-n6cc(C#N)c(=O)[nH]c6=O)cc5c4)CC3)nc2)C(C)(C)[C@H]1Oc1ccc(C#N)c(Cl)c1` [PROTAC-80, N-((1r,3r)-3-(3-chloro-4-cyanophenoxy)-2,2,4,4-tetramethylcyclobutyl)-6-(4-(5-((3-(5-cyano-2,4-dioxo-3,4-dihydropyrimidin-1(2H)-yl)quinolin-6-yl)oxy)pentyl)piperazin-1-yl)nicotinamide] were, in that order, “C (C <= 50)” and at least 100 nM.
Turning to `CC1Nc2c(OCCCCCN3CCN(c4ccc(C(=O)N[C@H]5C(C)(C)[C@H](Oc6ccc(C#N)c(Cl)c6)C5(C)C)cn4)CC3)cccc2C(=O)N1C1CCC(=O)NC1=O` (mixture of isomers) [PROTAC-28, rac-N-((1r,3r)-3-(3-chloro-4-cyanophenoxy)-2,2,4,4-tetramethylcyclobutyl)-6-(4-(5-((3-(2,6-dioxopiperidin-3-yl)-2-methyl-4-oxo-1,2,3,4-tetrahydroquinazolin-8-yl)oxy)pentyl)piperazin-1-yl)nicotinamide], the “AR Dmax” value is given as “C (C <= 50)” and the DC50 was at least 100 nM.
The corresponding values for `CCN(C(=O)c1ccc(OCCCCCN2CCN(c3ccc(C(=O)N[C@H]4C(C)(C)[C@H](Oc5ccc(C#N)c(Cl)c5)C4(C)C)cn3)CC2)cc1)C1CCC(=O)NC1=O` (mixture of isomers) [PROTAC-48, rac-N-((1r,3r)-3-(3-chloro-4-cyanophenoxy)-2,2,4,4-tetramethylcyclobutyl)-6-(4-(5-(4-((2,6-dioxopiperidin-3-yl)(ethyl)carbamoyl)phenoxy)pentyl)piperazin-1-yl)nicotinamide] are “C (C <= 50)” and at least 100 nM.
For `CC1(C)[C@H](NC(=O)c2ccc(N3CCN(CCOc4cccc5c4CN(c4ccc(F)cc4F)C5=O)CC3)nc2)C(C)(C)[C@H]1Oc1ccc(C#N)c(Cl)c1` [PROTAC-39, N-((1r,3r)-3-(3-chloro-4-cyanophenoxy)-2,2,4,4-tetramethylcyclobutyl)-6-(4-(2-((2-(2,4-difluorophenyl)-1-oxoisoindolin-4-yl)oxy)ethyl)piperazin-1-yl)nicotinamide], the “AR Dmax” value was 0C (C <= 50) and the 50% degradation concentration (DC50) is at least 100 nM.

A word on the DC50: it is the concentration giving 50% degradation. Read a low DC50 as degradation at low concentration.
